This is an account of results in US20250345391A1, “COMPOSITIONS AND METHODS FOR THE TREATMENT OF SEPSIS” (Children's Hospital Medical Center, priority 2022, published 2025).

Assay type in all cases: in vivo, Male C57BL/6 mice
For one test, the system named is lung sections. The test can be described thus: Lung histopathology after CLP sepsis. The conditions noted are these: 6 h after CLP; colivelin 100 or 200 μg/kg i.p. at 1 h after CLP; vs vehicle. The source says:
(§1) The investigation conformed to the National Institutes of Health Guide for the Care and Use of Laboratory Animals (Eighth Edition, 2011) and was approved by the Institutional Animal Care and Use Committee of the Cincinnati Children's Hospital Medical Center. Male C57BL/6 mice were obtained from Charles River Laboratories International, Inc. (Wilmington, MA). Mice were used at 3-5 months of age to mimic the equivalent for human ranges from 20-25 years (29). Male mice only were chosen for the experimentation to avoid interference from female hormonal fluctuations in sepsis responses during the estrous cycle. Mice were housed in pathogen-free conditions under a 10-h light/14-h dark cycle with free access to food and water. Mice were anesthetized with 2.0% isoflurane in 50% oxygen and polymicrobial sepsis was induced by cecal ligation and puncture (CLP) (30). […]
Paraffin-embedded sections of thoracic aortas and lungs were stained with hematoxylin and eosin for morphological evaluation by three independent observers blinded to the treatment groups. Lung injury was also analyzed by a semiquantitative score based on the following histologic features: alveolar capillary congestion, infiltration of red blood cells and inflammatory cells into the airspace, alveolar wall thickness, and hyaline membrane formation (34). […]

In test [1] the test system is TNFα, IL-1β, IL-6, IL-10, KC, MIP-1α. The test can be described thus: Plasma levels of cytokines after CLP sepsis (multiplex array). The following applies: 6 h after CLP, vs vehicle. The text has this:
The investigation conformed to the National Institutes of Health Guide for the Care and Use of Laboratory Animals (Eighth Edition, 2011) and was approved by the Institutional Animal Care and Use Committee of the Cincinnati Children's Hospital Medical Center. Male C57BL/6 mice were obtained from Charles River Laboratories International, Inc. (Wilmington, MA). Mice were used at 3-5 months of age to mimic the equivalent for human ranges from 20-25 years (29). Male mice only were chosen for the experimentation to avoid interference from female hormonal fluctuations in sepsis responses during the estrous cycle. Mice were housed in pathogen-free conditions under a 10-h light/14-h dark cycle with free access to food and water. Mice were anesthetized with 2.0% isoflurane in 50% oxygen and polymicrobial sepsis was induced by cecal ligation and puncture (CLP) (30). After a midline laparotomy, the cecum was exteriorized, ligated and punctured twice with a 23-G needle. The cecum was then returned into the peritoneal cavity and the abdominal incision was closed. After the procedure, mice were randomly assigned to three treatment groups: a vehicle-treated group received distilled water (200 μl/mouse) intraperitoneally (i.p.); a 100 μg colivelin-treated group received the colivelin at 100 μg/kg i.p., and a 200 μg colivelin-treated group received the colivelin at 200 μg/kg i.p. at 1 h after CLP. The intraperitoneal injection was chosen to allow for a rapid uptake and bioavailability of the peptide. All groups of mice also received fluid resuscitation (35 ml/kg normal saline solution subcutaneously) immediately after, at 3 h and 12 h after the CLP procedure. To minimize pain at the surgical incision site, lidocaine hydrochloride (1%, 4 mg/kg total dose) was applied locally immediately after the procedure. […] Mice were then sacrificed at 0, 6 and 18 h after CLP. Blood, lungs, kidneys, liver, and thoracic aortas were collected for biochemical assays. Plasma levels of tumor necrosis factor-α (TNFα), interleukin (IL)-1β, IL-6, IL-10, keratinocytes-derived chemokine (KC), and macrophage inflammatory proteins (MIP-1α) were used as indices of the systemic inflammatory response and were evaluated by a commercially available multiplex array system (Milliplex, Millipore Corporation, Billerica, MA). Plasma levels of endoglin, intercellular adhesion molecule-1 (ICAM-1), P-selectin, proprotein convertase subtilisin/kexin type 9 (PCSK9), and angiopoietin-2 (Ang 2) were used as indices of endothelial injury and were evaluated by a commercially available multiplex array system (R&D Systems, Minneapolis, MN). Plasma levels of syndecan-1 were used as indices of glycocalyx damage and were evaluated by a mouse syndecan-1 sandwich-type enzyme-linked immunosorbent assay (ELISA) kit (Boster Biological Technology Co., California, US). Assays were performed using the protocols recommended by the manufacturer.

Test [2] relates to endothelial glycocalyx and mitochondria of thoracic aortas. The test is described as follows: Transmission electron microscopy of thoracic aortas with lanthanum staining after CLP. The conditions noted are these: 6 h after CLP; colivelin 100 μg/kg i.p. at 1 h after CLP; vs vehicle.
Excerpt: as §1, with “(30). After a midline laparotomy, the cecum was exteriorized, ligated and punctured twice with a 23-G needle. The cecum was then returned into the peritoneal cavity and the abdominal incision was closed.” for “(30).”
Glycocalyx structure was assessed by transmission electron microscopy (35). […]

The mark [3] stands for this setting: colivelin 100 or 200 μg/kg i.p. at 1 h after CLP, dose-independent.
The mark [4] stands for this setting: colivelin 100 or 200 μg/kg i.p., trend towards reduction.

Regarding Colivelin (SALLRSIPAPAGASRLLLLTGEIDLP), the “Microscopic examination of hematoxylin and eosin-stained lung sections” value in the test with lung sections is “reduced infiltration of inflammatory cells and ameliorated alveolar damage”. Besides, in test [1] (setting [3]), the “Plasma levels of IL-10” value is on record as “significantly decreased”, the “Plasma levels of MIP-1α” value is reported as “significantly decreased” and the “Plasma levels of TNF-α” value is recorded as “significantly decreased”. For the same substance, in test [1] (setting [4]), the “Plasma levels of IL-1β” value was “not statistically different” and the “Plasma levels of IL-6” value is reported as “not statistically different”. The “Plasma levels of KC” value in test [1] (colivelin at 200 μg/kg i.p. at 1 h after CLP) is recorded as “significantly reduced”. In test [2], the “Dense structure of endothelial glycocalyx in thoracic aorta (electron microscopy)” value was “appeared well preserved” and the “Mitochondria in thoracic aorta cells (electron microscopy)” value is on record as “appeared normal with dense matrix in all cell types”.
